{"source": "patent US10787430B2", "about": "“Hemoglobin modifier compounds and uses thereof” (FronThera U.S. Pharmaceuticals LLC, priority 2016, dated 2020)", "biological_target": "T1, hemoglobin (20% hct blood) (Homo sapiens, UniProt P68871+P69905)", "T1 construct": "Normal whole blood was collected from adult healthy donors; from tissue; host or cells: normal human whole blood (red blood cells), adult healthy donors", "T1 sequence (P69905 2-142 limits assumed)": "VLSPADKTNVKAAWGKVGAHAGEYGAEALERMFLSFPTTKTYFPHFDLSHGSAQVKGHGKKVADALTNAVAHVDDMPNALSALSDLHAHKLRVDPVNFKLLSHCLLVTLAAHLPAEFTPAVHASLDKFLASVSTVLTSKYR", "T1 sequence (P68871 2-147 limits assumed)": "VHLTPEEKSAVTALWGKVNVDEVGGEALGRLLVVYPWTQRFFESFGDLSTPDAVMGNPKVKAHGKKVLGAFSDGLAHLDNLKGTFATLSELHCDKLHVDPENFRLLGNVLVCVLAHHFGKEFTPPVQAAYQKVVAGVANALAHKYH", "assay": "Dose-dependent whole blood OEC studies", "assay_type": "cell-based", "conditions": "37° C., 1 hr; for delta p50 0.2 mM: 0.2 mM compound; for delta p50 0.5 mM: 0.5 mM compound", "protocol": "Materials: Normal whole blood was collected from adult healthy donors at the Virginia Commonwealth University after informed consent. The use of these human samples is in accordance with regulations of the IRB for Protection of Human Subjects. Compounds (50 mM-100 mM concentration in DMSO) were stored at 15° C. or room temperature until use.\nTo 2 ml 20% hct blood, 0.2 or 0.5 or 1 mM compound was added and kept shaking at 37° C. for 1 hr. OEC analysis was performed as described above to determine partial pressure of oxygen (pO2) and Hb oxygen saturation values (sO2). A control without compound but containing equivalent amount of DMSO was performed (1%). GBT440 was used as a positive control. Table 2 below lists the delta p50% values."}
{"smiles": "CC(C)n1nccc1-c1ncccc1COc1ccc2sncc2c1C=O", "note": "[Example 11, 5-((2-(1-isopropyl-1H-pyrazol-5-yl)pyridin-3-yl)methoxy)benzo[d]isothiazole-4-carbaldehyde]", "values": [{"measurement": "delta p50 0.2 mM", "result": "−12.80", "unit": "%"}, {"measurement": "delta p50 0.5 mM", "result": "−37.60", "unit": "%"}]}
{"smiles": "CC(C)n1nccc1-c1ncccc1COc1ccc2ncsc2c1C=O", "note": "[Example 12, 6-((2-(1-isopropyl-1H-pyrazol-5-yl)pyridin-3-yl)methoxy)benzo[d]thiazole-7-carbaldehyde]", "values": [{"measurement": "delta p50 0.2 mM", "result": "−26.60", "unit": "%"}, {"measurement": "delta p50 0.5 mM", "result": "−58.40", "unit": "%"}]}
{"smiles": "CC(C)n1nccc1-c1ncccc1COc1ccc2scnc2c1C=O", "note": "[Example 16, 5-((2-(1-isopropyl-1H-pyrazol-5-yl)pyridin-3-yl)methoxy)benzo[d]thiazole-4-carbaldehyde]", "values": [{"measurement": "delta p50 0.2 mM", "result": "−8.90", "unit": "%"}, {"measurement": "delta p50 0.5 mM", "result": "−14.70", "unit": "%"}]}
{"smiles": "CC(C)n1nccc1-c1ncccc1COc1ccc2snnc2c1C=O", "note": "[Example 17, 5-((2-(1-isopropyl-1H-pyrazol-5-yl)pyridin-3-yl)methoxy)benzo[d][1,2,3]thiadiazole-4-carbaldehyde]", "values": [{"measurement": "delta p50 0.2 mM", "result": "−12", "unit": "%"}, {"measurement": "delta p50 0.5 mM", "result": "−30", "unit": "%"}]}
{"smiles": "CC(C)n1nccc1-c1ncccc1COc1ccc2nnsc2c1C=O", "note": "[Example 18, 6-((2-(1-isopropyl-1H-pyrazol-5-yl)pyridin-3-yl)methoxy)benzo[d][1,2,3]thiadiazole-7-carbaldehyde]", "values": [{"measurement": "delta p50 0.2 mM", "result": "−2.80", "unit": "%"}, {"measurement": "delta p50 0.5 mM", "result": "−8.10", "unit": "%"}]}
{"smiles": "CC(C)n1nccc1-c1ncccc1COc1ccc2ncncc2c1C=O", "note": "[Example 19, 6-((2-(1-isopropyl-1H-pyrazol-5-yl)pyridin-3-yl)methoxy)quinazoline-5-carbaldehyde]", "values": [{"measurement": "delta p50 0.2 mM", "result": "−8.20", "unit": "%"}, {"measurement": "delta p50 0.5 mM", "result": "−18.10", "unit": "%"}]}
{"smiles": "CC(C)n1ncc(F)c1-c1ncccc1COc1ccc2ncoc2c1C=O", "note": "[Example 22, 6-((2-(4-fluoro-1-isopropyl-1H-pyrazol-5-yl)pyridin-3-yl)methoxy)benzo[d]oxazole-7-carbaldehyde]", "values": [{"measurement": "delta p50 0.2 mM", "result": "−12.90", "unit": "%"}, {"measurement": "delta p50 0.5 mM", "result": "−35.50", "unit": "%"}]}
{"smiles": "[2H]C([2H])(Oc1cccc(O)c1C=O)c1cccnc1-c1c(F)cnn1C(C)C", "note": "[Example 25, 2-((2-(4-fluoro-1-isopropyl-1H-pyrazol-5-yl)pyridin-3-yl)methoxy-d2)-6-hydroxybenzaldehyde]", "values": [{"measurement": "delta p50 0.2 mM", "result": "−14.30", "unit": "%"}, {"measurement": "delta p50 0.5 mM", "result": "−36.10", "unit": "%"}]}
{"smiles": "[2H]C([2H])(Oc1cc(F)cc(O)c1C=O)c1cccnc1-c1c(F)cnn1C(C)C", "note": "[Example 26, 4-fluoro-2-((2-(4-fluoro-1-isopropyl-1H-pyrazol-5-yl)pyridin-3-yl)methoxy-d2)-6-hydroxybenzaldehyde]", "values": [{"measurement": "delta p50 0.2 mM", "result": "−11.10", "unit": "%"}, {"measurement": "delta p50 0.5 mM", "result": "−26.10", "unit": "%"}]}
{"smiles": "[2H]C([2H])(Oc1ccc2ncoc2c1C=O)c1cccnc1-c1ccnn1C(C)C", "note": "[Example 28, 6-((2-(1-isopropyl-1H-pyrazol-5-yl)pyridin-3-yl)methoxy-d2)benzo[d]oxazole-7-carbaldehyde]", "values": [{"measurement": "delta p50 0.2 mM", "result": "−11.90", "unit": "%"}, {"measurement": "delta p50 0.5 mM", "result": "−40.70", "unit": "%"}]}
{"smiles": "[2H]C([2H])([2H])C(n1nccc1-c1ncccc1COc1cc(F)cc(O)c1C=O)C([2H])([2H])[2H]", "note": "[Example 31, 4-fluoro-2-hydroxy-6-((2-(1-(propan-2-yl-1,1,1,3,3,3-d6)-1H-pyrazol-5-yl)pyridin-3-yl)methoxy)benzaldehyde]", "values": [{"measurement": "delta p50 0.2 mM", "result": "−9.80", "unit": "%"}, {"measurement": "delta p50 0.5 mM", "result": "−36.10", "unit": "%"}]}
{"smiles": "[2H]C([2H])([2H])C(n1ncc(F)c1-c1ncccc1COc1cccc(O)c1C=O)C([2H])([2H])[2H]", "note": "[Example 32, 2-((2-(4-fluoro-1-(propan-2-yl-1,1,1,3,3,3-d6)-1H-pyrazol-5-yl)pyridin-3-yl)methoxy)-6-hydroxybenzaldehyde]", "values": [{"measurement": "delta p50 0.2 mM", "result": "−12.70", "unit": "%"}, {"measurement": "delta p50 0.5 mM", "result": "−39.20", "unit": "%"}]}
